The source of these data is patent US10689362B2, “Quinoxaline compounds as type III receptor tyrosine kinase inhibitors” (Development Center for Biotechnology, priority 2016, dated 2020).

Test [1] has as its target CSF-1R kinase (Homo sapiens (Human), UniProt P07333). The experiment in a line: CSF-1R kinase assay (AlphaScreen). Type of test: biochemical. To be noted: class symbol. On the procedure:
Inhibition of CSF-1R kinase activity by a test compound disclosed herein was estimated by AlphaScreen (PerkinElmer). […] Reactions were incubated at 30° C. for 45 min and stopped by adding 5 μL of 50 mM EDTA. Analysis of resulting product using an AlphaScreen kit, and counted with Enspire Alpha (PerkinElmer). […] The IC50 values of quinoxaline compounds of this invention against CSF-1R kinase were determined using the GraphPad Prism 5 software.
A general note: Alpha assays give light when donor and acceptor beads are brought close together.

Test [2] addresses c-KIT kinase (Homo sapiens (Human), UniProt P10721). The experiment in a line: c-KIT kinase assay (radiometric). It is filed as biochemical. In a few lines:
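Recombinant c-Kit (20 ng) with 2 μg Poly-(Glu4:Tyr1) in MOPS pH 7.0 buffer with MgCl2/MnCl2, 10 μM ATP plus [^33P]-ATP, 4% DMSO final, 60 min at 30° C. Stopped with phosphoric acid, filter-captured and scintillation counted; IC50 from curve fit.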

Test [3] has as its target FLT3 kinase (Homo sapiens (Human), UniProt P36888). The experiment in a line: FLT3 kinase assay (radiometric). Type of test: biochemical. To be noted: bound. In a few lines:
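Recombinant FLT3 (5 ng) phosphorylating poly(Glu4:Tyr1) (2 μg) with 10 μM ATP plus [^33P]-ATP in MOPS pH 7.0 buffer, 4% DMSO final, 60 min at 30° C. Reaction stopped with phosphoric acid, filter-captured and scintillation-counted; IC50 derived from dose-response.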

Test [4] addresses PDGFRβ kinase (Homo sapiens (Human), UniProt P09619). Description: PDGFRβ kinase assay (radiometric). Type of test: biochemical. The following applies: bound. In a few lines: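 Radiometric assay: recombinant PDGFRβ with poly(Glu4:Tyr1) in MOPS pH 7.0 buffer containing Mg2+/Mn2+, 10 μM ATP plus [33P]-ATP, and compound at 4% DMSO final. Incubated 60 min at 30° C, stopped with phosphoric acid, filter-captured and scintillation-counted. IC50 from curve fitting.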

Test [5] deals with CSF-1-dependent M-NFS-60 mouse myeloid leukemia cell. Description: M-NFS-60 cell proliferation assay (CellTiter-96). It is filed as cell-based. To be noted: Cytotoxicity, M-NFS-60 cells, 72 hours. The essentials: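 Growth inhibition was measured as absorbance at 490 nm after 4 h with CellTiter 96 AQueous One reagent. Beforehand, M-NFS-60 cells (2000/well, CSF-1-dependent) were treated with a compound dilution series for 72 h following overnight plating at 37 °C, 5% CO2.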

Test [6] deals with MV4-11 human acute myeloid leukemia cell with FLT3-ITD mutation. Description: MV4-11 cell proliferation assay (CellTiter-96). It is filed as cell-based. The following applies: Cytotoxicity, MV4-11 cells, 72 hours. The essentials:
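Growth inhibition read as absorbance at 490 nm after 4 hours with CellTiter96 AQueous One reagent. Before that, FLT3-ITD-dependent MV4-11 cells (6500 cells/well, overnight at 37° C., 5% CO2) received a rising compound concentration series for 72 hours.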

Test [7] concerns Kasumi-1 human acute myeloid leukemia cell with c-KIT N822K activating mutation. Description: Kasumi-1 cell proliferation assay (CellTiter-96). It is filed as cell-based. The following applies: Cytotoxicity, Kasumi-1 cells, 72 hours. In a few lines:
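After 72 h of treatment with a compound dilution series, growth of c-KIT N822K-driven Kasumi-1 cells (64000 per well, plated the day before) was read as 490 nm absorbance. This followed a 4 h incubation with CellTiter96 AQueous One reagent.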

Test [8] relates to THP-1 human acute monocytic leukemia cell harboring NRAS G12D mutation. The experiment in a line: THP-1 cell proliferation assay (counter screen, CellTiter-96). Type of test: cell-based. To be noted: Cytotoxicity, THP-1 cells (counter screen), 72 hours. In a few lines: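 Growth inhibition read as 490 nm absorbance after 4 h with CellTiter96 AQueous One reagent, following 72 h compound exposure at rising concentrations. THP-1 (NRAS G12D) cells plated at 5000 per well and left overnight at 37 °C, 5% CO2 before dosing.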
(A counterscreen serves to expose hits that act by an unwanted route or on another target.)

In test [9] the test system is osteoclast precursors (osteoclast differentiation). Description: Osteoclast tartrate-resistant acid phosphatase assay. To be noted: 168 h, at 1 μM treatment, 7 days, RANKL and M-CSF, read-out: inhibition activity against osteoclast differentiation. It is filed as cell-based. In a few lines:
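Differentiation inhibition was scored at 1 μM compound in duplicate, using supernatant TRAP activity read at 550 nm with an acid phosphatase kit.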

PDGFRβ kinase, sequence (P09619 33-1106): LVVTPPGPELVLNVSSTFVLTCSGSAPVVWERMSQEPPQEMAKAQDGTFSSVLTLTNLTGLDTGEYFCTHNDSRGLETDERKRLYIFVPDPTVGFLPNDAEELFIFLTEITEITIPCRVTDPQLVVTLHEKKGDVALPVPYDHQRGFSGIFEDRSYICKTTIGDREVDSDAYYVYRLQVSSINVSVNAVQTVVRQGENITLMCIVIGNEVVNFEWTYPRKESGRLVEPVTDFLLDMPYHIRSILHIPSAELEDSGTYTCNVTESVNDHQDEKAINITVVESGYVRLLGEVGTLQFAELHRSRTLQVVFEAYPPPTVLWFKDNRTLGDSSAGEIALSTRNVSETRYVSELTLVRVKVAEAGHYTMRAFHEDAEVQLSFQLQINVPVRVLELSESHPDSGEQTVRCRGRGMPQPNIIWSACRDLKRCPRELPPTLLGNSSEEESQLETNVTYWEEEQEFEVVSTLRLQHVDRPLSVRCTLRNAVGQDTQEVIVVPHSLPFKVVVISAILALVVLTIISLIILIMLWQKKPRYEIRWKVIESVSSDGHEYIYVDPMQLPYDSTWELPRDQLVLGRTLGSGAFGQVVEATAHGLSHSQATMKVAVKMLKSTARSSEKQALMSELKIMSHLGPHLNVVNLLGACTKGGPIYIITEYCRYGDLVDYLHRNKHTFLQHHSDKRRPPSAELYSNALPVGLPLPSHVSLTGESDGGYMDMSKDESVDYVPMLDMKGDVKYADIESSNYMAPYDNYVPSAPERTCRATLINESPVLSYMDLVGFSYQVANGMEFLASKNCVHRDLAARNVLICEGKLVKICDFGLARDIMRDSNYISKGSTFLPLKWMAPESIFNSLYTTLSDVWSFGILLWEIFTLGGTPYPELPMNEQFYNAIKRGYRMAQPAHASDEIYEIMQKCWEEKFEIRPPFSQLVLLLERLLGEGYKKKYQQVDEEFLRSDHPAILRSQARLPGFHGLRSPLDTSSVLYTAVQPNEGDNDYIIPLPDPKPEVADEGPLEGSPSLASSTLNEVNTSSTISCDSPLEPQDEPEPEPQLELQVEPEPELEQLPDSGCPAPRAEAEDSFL
CSF-1R kinase, sequence (P07333 20-972): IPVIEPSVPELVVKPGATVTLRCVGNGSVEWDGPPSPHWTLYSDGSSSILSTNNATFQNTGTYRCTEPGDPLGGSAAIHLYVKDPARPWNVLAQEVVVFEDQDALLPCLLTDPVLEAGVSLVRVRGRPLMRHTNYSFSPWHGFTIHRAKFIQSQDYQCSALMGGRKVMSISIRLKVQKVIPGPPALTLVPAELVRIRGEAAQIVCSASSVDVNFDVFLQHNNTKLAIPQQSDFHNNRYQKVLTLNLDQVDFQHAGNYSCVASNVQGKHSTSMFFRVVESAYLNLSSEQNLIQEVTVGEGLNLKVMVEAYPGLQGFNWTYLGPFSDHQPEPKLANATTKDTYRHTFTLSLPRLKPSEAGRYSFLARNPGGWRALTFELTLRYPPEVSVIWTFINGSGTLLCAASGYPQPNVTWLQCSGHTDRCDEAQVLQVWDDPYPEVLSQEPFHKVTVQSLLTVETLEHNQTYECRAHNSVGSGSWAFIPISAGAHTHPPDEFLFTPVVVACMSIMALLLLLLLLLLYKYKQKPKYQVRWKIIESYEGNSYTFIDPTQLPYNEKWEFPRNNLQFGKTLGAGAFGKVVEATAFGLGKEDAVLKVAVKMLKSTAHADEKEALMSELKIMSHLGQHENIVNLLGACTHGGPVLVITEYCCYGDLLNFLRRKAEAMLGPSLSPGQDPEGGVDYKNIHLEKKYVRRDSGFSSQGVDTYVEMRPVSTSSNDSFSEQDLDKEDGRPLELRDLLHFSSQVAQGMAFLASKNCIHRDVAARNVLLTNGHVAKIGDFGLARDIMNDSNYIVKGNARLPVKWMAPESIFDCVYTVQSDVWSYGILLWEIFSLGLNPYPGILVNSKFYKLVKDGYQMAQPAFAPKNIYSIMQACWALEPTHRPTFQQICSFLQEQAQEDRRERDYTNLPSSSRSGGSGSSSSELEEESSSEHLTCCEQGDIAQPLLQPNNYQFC
c-KIT kinase, sequence (P10721 26-976): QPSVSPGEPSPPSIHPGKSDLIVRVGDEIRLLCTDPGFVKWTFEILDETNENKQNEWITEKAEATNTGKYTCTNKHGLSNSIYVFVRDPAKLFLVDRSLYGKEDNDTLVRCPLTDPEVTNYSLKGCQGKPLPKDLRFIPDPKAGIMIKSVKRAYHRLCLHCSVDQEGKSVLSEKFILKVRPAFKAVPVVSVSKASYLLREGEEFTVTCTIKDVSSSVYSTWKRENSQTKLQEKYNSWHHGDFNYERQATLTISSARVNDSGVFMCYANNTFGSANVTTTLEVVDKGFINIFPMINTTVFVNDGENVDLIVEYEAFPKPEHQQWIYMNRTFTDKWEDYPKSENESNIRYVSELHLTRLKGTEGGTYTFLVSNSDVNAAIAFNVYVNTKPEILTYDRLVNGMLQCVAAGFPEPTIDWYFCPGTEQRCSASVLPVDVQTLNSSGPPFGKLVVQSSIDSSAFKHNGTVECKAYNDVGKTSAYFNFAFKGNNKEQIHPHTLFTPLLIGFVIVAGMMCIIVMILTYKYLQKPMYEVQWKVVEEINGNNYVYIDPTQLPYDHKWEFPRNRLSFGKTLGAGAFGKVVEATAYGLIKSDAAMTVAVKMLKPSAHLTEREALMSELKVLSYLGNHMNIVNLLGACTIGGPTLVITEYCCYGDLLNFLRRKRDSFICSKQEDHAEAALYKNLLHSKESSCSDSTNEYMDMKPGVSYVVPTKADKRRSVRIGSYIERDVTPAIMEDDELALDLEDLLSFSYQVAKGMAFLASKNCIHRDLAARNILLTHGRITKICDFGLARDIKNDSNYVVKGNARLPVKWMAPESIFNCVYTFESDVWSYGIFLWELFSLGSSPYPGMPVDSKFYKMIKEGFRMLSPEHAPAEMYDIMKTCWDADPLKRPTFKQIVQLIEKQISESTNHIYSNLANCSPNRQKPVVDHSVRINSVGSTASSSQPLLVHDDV
FLT3 kinase, sequence (P36888 27-993): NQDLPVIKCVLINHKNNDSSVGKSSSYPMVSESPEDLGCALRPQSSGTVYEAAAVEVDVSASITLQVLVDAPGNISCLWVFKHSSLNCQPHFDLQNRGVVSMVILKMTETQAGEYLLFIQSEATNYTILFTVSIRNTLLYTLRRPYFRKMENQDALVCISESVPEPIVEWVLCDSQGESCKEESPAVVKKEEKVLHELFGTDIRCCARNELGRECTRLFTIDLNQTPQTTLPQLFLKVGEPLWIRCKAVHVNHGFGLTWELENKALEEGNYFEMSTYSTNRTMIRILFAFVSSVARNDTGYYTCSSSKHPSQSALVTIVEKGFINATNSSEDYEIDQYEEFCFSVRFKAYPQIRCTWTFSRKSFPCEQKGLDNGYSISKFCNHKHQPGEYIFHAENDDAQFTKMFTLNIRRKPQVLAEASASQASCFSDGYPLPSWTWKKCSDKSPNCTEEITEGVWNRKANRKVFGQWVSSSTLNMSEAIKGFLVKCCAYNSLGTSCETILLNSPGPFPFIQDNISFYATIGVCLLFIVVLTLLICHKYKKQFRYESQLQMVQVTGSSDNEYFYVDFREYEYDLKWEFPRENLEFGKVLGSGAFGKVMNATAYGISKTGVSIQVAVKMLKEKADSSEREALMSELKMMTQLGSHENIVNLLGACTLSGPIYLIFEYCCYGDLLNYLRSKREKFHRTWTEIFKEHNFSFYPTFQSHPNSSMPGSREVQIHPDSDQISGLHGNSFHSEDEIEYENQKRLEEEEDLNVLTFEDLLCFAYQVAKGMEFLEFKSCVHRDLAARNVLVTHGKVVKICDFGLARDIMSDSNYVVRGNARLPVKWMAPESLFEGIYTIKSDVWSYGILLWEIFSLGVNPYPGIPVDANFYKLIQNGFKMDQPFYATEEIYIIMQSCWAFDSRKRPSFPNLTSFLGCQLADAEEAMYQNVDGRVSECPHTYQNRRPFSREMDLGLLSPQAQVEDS

For orientation: IC50 means the concentration that gives 50% inhibition. Low values mean higher potency, high ones lower potency. As usually defined, the inhibition is the share of the control response that was lost under treatment. Turning to `COc1cc(Nc2ccc3ncc(N4CCNCC4)nc3c2C#N)ccc1OCc1ccc(C)nc1` [Example 67, 6-((3-methoxy-4-((6-methylpyridin-3-yl)methoxy)phenyl)amino)-3-(piperazin-1-yl)quinoxaline-5-carbonitrile], the half-inhibitory concentration (IC50) in test [1] was less than 100 nM; in test [2] (class symbol), less than 100 nM; in [3], more than 1000 nM; in test [4], more than 1000 nM; in test [5], less than 300 nM; in test [6], 1000 to 10000 nM. The IC50 in [7] and in test [8] was 1000 to 10000 nM in each case. Moreover, the inhibition at 1 µM in [9] was more than 50%.

For the compound `COCc1ccc(COc2ccc(Nc3ccc4ncc(N5CCOCC5)nc4c3C#N)cc2OC)nc1` [Example 125, 6-((3-methoxy-4-((5-(methoxymethyl)pyridin-2-yl)methoxy)phenyl)amino)-3-morpholinoquinoxaline-5-carbonitrile], the IC50 in [1] is less than 100 nM; in [2] (class symbol), less than 100 nM; in [3], more than 1000 nM; in test [4], more than 1000 nM; in test [5], 1000 to 10000 nM; in test [6], more than 10000 nM. Further, the IC50 in [7] is less than 300 nM; in test [8], more than 10000 nM. Also, the inhibition at 1 µM in [9] was more than 50%.

As to `COc1cc(Nc2ccc3ncc(N4CCOCC4)nc3c2C(N)=O)ccc1OCc1ccc(C)nc1` [Example 135, 6-((3-methoxy-4-((6-methylpyridin-3-yl)methoxy)phenyl)amino)-3-morpholinoquinoxaline-5-carboxamide], the IC50 was less than 100 nM in test [1]; less than 100 nM in test [2] (class symbol); more than 1000 nM in test [3]; more than 1000 nM in test [4]; less than 300 nM in test [5]; 1000 to 10000 nM in test [6]. For the same compound, the IC50 in test [7] is less than 300 nM; in test [8], more than 10000 nM. Besides, the inhibition at 1 µM in [9] was more than 50%.

As to `COc1cc(Nc2ccc3ncc(N4CCC(N(C)C)CC4)nc3c2C#N)ccc1OCc1cccc(F)c1` [Example 89, 3-(4-(dimethylamino)piperidin-1-yl)-6-((4-((3-fluorobenzyl)oxy)-3-methoxyphenyl)amino)quinoxaline-5-carbonitrile], the concentration for half-maximal inhibition (IC50) in test [1] was less than 100 nM; in test [2] (class symbol) it was less than 100 nM; in test [3], more than 1000 nM; in [4], more than 1000 nM; in test [5] it was less than 300 nM; in test [6], 1000 to 10000 nM. The IC50 in test [7] and in [8] was 1000 to 10000 nM in each case. Further, in [9], the inhibition at 1 µM was more than 50%.

Regarding `C=C(C)c1cnc2ccc(Nc3ccc(OCc4ccc(OC)cc4)c(OC)c3)c(C#N)c2n1` [Example 108, 6-((3-methoxy-4-((4-methoxybenzyl)oxy)phenyl)amino)-3-(prop-1-en-2-yl)quinoxaline-5-carbonitrile], the IC50 in [1] was less than 100 nM; in test [2] (bound), more than 1000 nM; in test [3] it was more than 1000 nM; in [4] it was more than 1000 nM; in [5] it was 1000 to 10000 nM; in test [6] it was more than 10000 nM. In addition, the IC50 in test [7] and in [8] was more than 10000 nM in each case. In addition, the inhibition at 1 µM in test [9] is more than 50%.

On to `CCc1ccc(COc2ccc(Nc3ccc4ncc(N5CCOCC5)nc4c3C#N)cc2OC)cn1` [Example 101, 6-((4-((6-ethylpyridin-3-yl)methoxy)-3-methoxyphenyl)amino)-3-morpholinoquinoxaline-5-carbonitrile], for which the IC50 in test [1] was less than 100 nM; in [2] (class symbol), less than 100 nM; in test [3], more than 1000 nM; in test [4], more than 1000 nM; in test [5], less than 300 nM; in [6] it was 1000 to 10000 nM. The half-maximal inhibitory concentration (IC50) in test [7] was less than 300 nM; in test [8], more than 10000 nM. For the same compound, the inhibition at 1 µM in test [9] was more than 50%.

Turning to `COc1cc(Nc2ccc3ncc(N4CCOCC4)nc3c2C#N)ccc1OCc1ccc2c(c1)CCO2` [Example 45, 6-((4-((2,3-dihydrobenzofuran-5-yl)methoxy)-3-methoxyphenyl)amino)-3-morpholinoquinoxaline-5-carbonitrile], the IC50 in [1] was less than 100 nM; in test [2] (class symbol), less than 100 nM; in test [3] it was more than 1000 nM; in test [4], more than 1000 nM; in test [5] it was less than 300 nM; in [6], more than 10000 nM. The 50% inhibitory concentration (IC50) was 300 to 1000 nM in [7] and more than 10000 nM in [8]. Also, the inhibition at 1 µM in [9] is more than 50%.

As to `COc1ccc(COc2ccc(Nc3ccc4ncc(N5CCC(N(C)C)CC5)nc4c3C#N)cc2OC)cc1F` [Example 85, 3-(4-(dimethylamino)piperidin-1-yl)-6-((4-((3-fluoro-4-methoxy-benzyl)oxy)-3-methoxyphenyl)amino)quinoxaline-5-carbonitrile], the IC50 in test [1] was less than 100 nM; in test [2] (class symbol), less than 100 nM; in test [3] it was more than 1000 nM; in test [4], more than 1000 nM; in [5], less than 300 nM; in test [6], 1000 to 10000 nM. Also, the IC50 in test [7] was less than 300 nM; in test [8], 1000 to 10000 nM. Also, in test [9], the inhibition at 1 µM was more than 50%.

With `C=C(C)c1cnc2ccc(Nc3ccc(OCc4ccc(OC)cc4)c(OC)c3)cc2n1` [Example 106, N-(3-methoxy-4-((4-methoxybenzyl)oxy)phenyl)-3-(prop-1-en-2-yl)quinoxalin-6-amine], the half-maximal inhibitory concentration (IC50) in test [1] was less than 100 nM; in [2] (class symbol), 300 to 1000 nM; in test [3], more than 1000 nM; in test [4] it was more than 1000 nM; in [5], 300 to 1000 nM; in [6] it was more than 10000 nM. Besides, the IC50 in test [7] is 1000 to 10000 nM; in test [8] it was more than 10000 nM. The inhibition at 1 µM in test [9] was more than 50%.

In the case of `COc1ccc(COc2ccc(Nc3ccc4ncc(N(C)C)nc4c3C#N)cc2OC)cc1C#N` [Example 139, 6-((4-((3-cyano-4-methoxybenzyl)oxy)-3-methoxyphenyl)amino)-3-(dimethylamino)quinoxaline-5-carbonitrile], the IC50 in test [1] was less than 100 nM; in test [2] (class symbol), 100 to 300 nM; in test [3] it was more than 1000 nM; in test [4] it was more than 1000 nM; in test [5], less than 300 nM; in test [6] it was more than 10000 nM. For the same compound, the IC50 in test [7] and in test [8] was more than 10000 nM each time. In addition, the inhibition at 1 µM in test [9] was more than 50%.

As to `COc1ccc(COc2ccc(Nc3ccc4ncc(N5CCOCC5)nc4c3C#N)cc2OC)cc1` [Example 16, 6-((3-methoxy-4-((4-methoxybenzyl)oxy)phenyl)amino)-3-morpholinoquinoxaline-5-carbonitrile], the IC50 in test [1] is less than 100 nM; in [2] (class symbol), less than 100 nM; in [3] it was more than 1000 nM; in test [4] it was more than 1000 nM; in test [5], less than 300 nM; in [6], more than 10000 nM. Moreover, the half-inhibitory concentration (IC50) in test [7] was less than 300 nM; in test [8], more than 10000 nM. Also, the inhibition at 1 µM in test [9] is more than 50%.
